According to patent US20140039056A1, “BROMFENAC ORGANIC SALTS AND PREPARATION METHOD, COMPOSITION AND USE THEREOF” (SHENYANG XINGQI PHARMACEUTICAL CO., LTD., priority 2010, published 2014):
Counter-ions that a name gives are not always drawn. Like-named read-outs stand apart in the source and are kept apart here.

Tests used:
[1] = tested on: swelling of auricle caused by xylene in mice; assay: Test of effects on swelling of auricle caused by xylene in mice; type: in vivo; conditions: for effect on swelling of auricle caused by xylene in mice: in words; for Swelling degree: weight difference between two ears, lavage 50 mL/Kg of 1 g/100 ml solution twice per day for 7 days, mice
Description: Test grouping: 40 mice, bodyweight 20±2 g, randomly divided into 4 groups, 10 mice per group, i.e., physiological control group, bromfenac sodium group, bromfenac diethylamine salt group, and bromfenac trometamol salt group.
Test method: the mice of each test group were administered with physiological saline, solution of bromfenac sodium, solution of bromfenac diethylamine salt and solution of bromfenac trometamol salt, twice per day via lavage in lavage dose of 50 mL/Kg, for consecutive 7 days, 1 h after the last administration, xylene in dose of 0.05 mL/mouse was coated on right ears of mice of each test group, while their left ears were used as control, the mice were executed after 30 min, ear parts that were at the same place and had the same area were cut from both ears by a puncher with a diameter of 6 mm, and weighed with ten thousandth electronic analytical balance, and the weight difference between two ears was used as index of swelling.

[2] = tested on: swelling of foot caused by egg white in rats; assay: Test of effects on swelling of foot caused by egg white in rats; type: in vivo; conditions: for effect on voix pedis swelling caused by egg white in rats: within 0.5 hours to 6 hours, versus physiological saline control group, in words
Description: Test grouping: 40 rats, bodyweight 200-220 g, randomly divided into 4 groups, 10 rats per group, i.e., physiological saline control group, bromfenac sodium group, bromfenac diethylamine salt group, and bromfenac trometamol salt group.
The rats of each test group were administered with physiological saline, solution of bromfenac sodium, solution of bromfenac diethylamine salt and solution of bromfenac trometamol salt, twice per day via lavage in lavage dose of 50 mL/Kg, for consecutive 7 days, before the last administration, volumes of voix pedis of normal right and left hindfeet of each rat were measured, and the measurement was performed by blood capillary volume method. The linedrawing position at ankle joint of rat was adjusted so that the volumes of voix pedis of right and left hindfeet were about 1 mL, 0.5 hours after the last administration, 0.1 mL of newly prepared 10% egg white liquid was subcutaneously injected to voix pedis of right and left hindfeet of rats respectively, and the volumes of voix pedis of right and left hindfeet of rats were measured again at 0.5, 1, 2, 4, 6 hours after injection of egg white, and swelling rate was calculated (voix pedis swelling rate=voix pedis volume at different time after injection of egg white−voix pedis volume at the same side before injection of egg white/voix pedis volume at the same side before injection of egg white), and the results were shown in Table 5.

[3] = analgesic effect; cited from earlier work
[4] = cited from earlier work
[5] = 0.5 hours after injection of egg white
[6] = 0.5 hours after injection of egg white, lavage 50 mL/Kg twice per day for 7 days
[7] = 1.0 hours after injection of egg white
[8] = 2.0 hours after injection of egg white
[9] = 4.0 hours after injection of egg white
[10] = 6.0 hours after injection of egg white
[11] = Normal rats (before egg white), lavage 50 mL/Kg twice per day for 7 days

Structure (SMILES)	effect on swelling of auricle caused by xylene in mice [1]	Swelling degree [1] [mg]	voix pedis swelling rate [2, 5]	voix pedis volume [2, 6] [mL]	voix pedis swelling rate [2, 7]	voix pedis volume [2, 7] [mL]	voix pedis swelling rate [2, 8]	voix pedis volume [2, 8] [mL]	voix pedis swelling rate [2, 9]	voix pedis volume [2, 9] [mL]	voix pedis swelling rate [2, 10]	voix pedis volume [2, 10] [mL]	voix pedis swelling rate ([2]; Normal rats)	voix pedis volume [2, 11] [mL]	effect on voix pedis swelling caused by egg white in rats [2]	further results
Nc1c(CC(=O)O)cccc1C(=O)c1ccc(Br)cc1 [Bromfenac diethylamine salt, bromfenac diethylamine salt]	significant inhibition effects	5.37 ± 0.50	(0.65 ± 0.08)	1.61 ± 0.08	(0.58 ± 0.08)	1.55 ± 0.09	(0.41 ± 0.08)	1.38 ± 0.06	(0.23 ± 0.05)	1.21 ± 0.06	(0.08 ± 0.06)	1.06 ± 0.08	(0.65 ± 0.08)	1.61 ± 0.08	significantly inhibit	
Nc1c(CC(=O)[O-])cccc1C(=O)c1ccc(Br)cc1.[Na+] [Bromfenac sodium, 2-amino-3-(4-bromobenzoyl)phenylacetic acid sodium salt sesquialter hydrate, reference compound]	significant inhibition effects	5.45 ± 0.36	(0.58 ± 0.06)	1.56 ± 0.11	(0.53 ± 0.07)	1.51 ± 0.10	(0.40 ± 0.09)	1.39 ± 0.11	(0.22 ± 0.08)	1.20 ± 0.10	(0.06 ± 0.05)	1.04 ± 0.06	(0.58 ± 0.06)	1.51 ± 0.11	significantly inhibit	potency relative to other non-steroid anti-inflammatory agents [3]: 10 times; solubility ([4]; 0.1M hydrochloric acid solution): almost insoluble; solubility ([4]; acetone): almost insoluble; solubility ([4]; acetonitrile): almost insoluble; solubility ([4]; ethanol): slight soluble; solubility ([4]; methanol): soluble; solubility ([4]; water): soluble
Nc1c(CC(=O)O)cccc1C(=O)c1ccc(Br)cc1 [Bromfenac trometamol salt, bromfenac trometamol salt]	significant inhibition effects	5.41 ± 0.47	(0.63 ± 0.09)	1.59 ± 0.09	(0.57 ± 0.10)	1.54 ± 0.11	(0.44 ± 0.13)	1.41 ± 0.13	(0.20 ± 0.10)	1.24 ± 0.10	(0.10 ± 0.07)	1.08 ± 0.08	(0.63 ± 0.09)	1.59 ± 0.09	significantly inhibit	
